In experiment [1] the test system is strain of German cockroaches that is resistant to multiple insecticides. The experiment can be described thus: Topical application test on male adult German cockroach, multiple-insecticide-resistant strain. Format: in vivo. Particulars: for LD50 Resistant: 1 μL acetone solution applied to ventral surface of thorax of male adult, mortality after 4 days, Probit method, strain with L993F sodium channel and A302S GABAergic chloride channel mutations and enhanced metabolic detoxification; for Resistance ratio: calculated by formula (2) from the LD50 values of the resistant and susceptible strains; for Control of harmful arthropods showing high resistance to permethrin, deltamethrin, fipronil, indoxacarb and fluxametamide: conclusion drawn from Table 1. As for the experimental part: (§1) An acetone solution comprising a prescribed concentration of each of permethrin, deltamethrin, fipronil, indoxacarb, fluxametamide, broflanilide, nicofluprole, cyproflanilide, or isocycloseram was prepared, and 1 μL of the acetone solution was applied to a ventral surface of thorax of a male adult of German cockroach. Two strains of German cockroaches, i.e., the strain of German cockroaches that is susceptible to insecticides and the strain of German cockroaches that is resistant to multiple insecticides, were used. The strain of German cockroaches that is resistant to multiple insecticides is highly resistant to pyrethroid compounds, phenylpyrazole compounds, and oxadiazine compounds. As the resistance mechanism, the strain has the L993F mutation of voltage-dependent sodium channel resulting in pyrethroid resistance, the A302S mutation of GABAergic chloride ion channel resulting in dieldrin resistance, and enhanced metabolic detoxification activities. The application concentrations were three or more concentrations resulting in 0 to 100% of mortality of insects (comprising one or more concentrations resulting in less than 50% mortality of insects, and one or more concentrations resulting in more than 50% mortality of insects), and the number of test insects per concentration was ten in duplicate. After 4 days, the number of dead German cockroach(es) was investigated, and LD50 value was calculated by the Probit method. The mortalities of insects of 0% and 100% were corrected by the method of Miller and Tainter represented by the following formula (1), and corrected mortalities of insects were used when LD50 values were calculated. The resistance ratio was calculated according to the following formula (2) by using the obtained LD50 values. In this test, a dead insect refers to an insect in which the action was completely stopped.

Experiment [2] has as its system strain of German cockroaches that is susceptible to insecticides. The experiment can be described thus: Topical application test on male adult German cockroach, insecticide-susceptible strain. Format: in vivo. Particulars: 1 μL acetone solution applied to ventral surface of thorax of male adult; mortality after 4 days; Probit method. The method, then: as §1

The structures appear in SMILES notation.

In the case of `CN(C(=O)c1ccccc1)c1cccc(C(=O)Nc2c(Br)cc(C(F)(C(F)(F)F)C(F)(F)F)cc2C(F)(F)F)c1F` [Broflanilide, broflanilide], in experiment [1], the “LD50 Resistant” value amounted to 0.021 μg/insect; the Resistance ratio is 2.3; the “Control of harmful arthropods showing high resistance to permethrin, deltamethrin, fipronil, indoxacarb and fluxametamide” value is on record as “can effectively control”. The “LD50 Susceptible” value in experiment [2] is 0.0093 μg/insect.
The corresponding values for `O=C(Nc1c(Br)cc(C(F)(C(F)(F)F)C(F)(F)F)cc1C(F)(F)F)c1cccc(N(CC2CC2)C(=O)c2ccc(F)cc2)c1F` [Cyproflanilide, cyproflanilide] are 0.035 μg/insect, 1.2, “can effectively control” and 0.028 μg/insect.
Regarding `CC1(C)[C@H](C(=O)O[C@H](C#N)c2cccc(Oc3ccccc3)c2)[C@@H]1C=C(Br)Br` [Deltamethrin, deltamethrin], in experiment [1], the “LD50 Resistant” value worked out at 0.68 μg/insect and the Resistance ratio is listed as 43. The “LD50 Susceptible” value in experiment [2] amounted to 0.016 μg/insect.
As to `N#Cc1nn(-c2c(Cl)cc(C(F)(F)F)cc2Cl)c(N)c1[S+]([O-])C(F)(F)F` (stereo not shown) [Fipronil, fipronil], in experiment [1], the “LD50 Resistant” value is listed as 0.14 μg/insect and the Resistance ratio was 41. For the same compound, the “LD50 Susceptible” value in experiment [2] came to 0.0034 μg/insect.
The corresponding values for `CON=CNC(=O)c1ccc(C2=NOC(c3cc(Cl)cc(Cl)c3)(C(F)(F)F)C2)cc1C` (stereo not shown) [Fluxametamide, fluxametamide] are 2.7 μg/insect, 46 and 0.059 μg/insect.
The corresponding values for `COC(=O)N(C(=O)N1CO[C@@]2(C(=O)OC)Cc3cc(Cl)ccc3C2=N1)c1ccc(OC(F)(F)F)cc1` [Indoxacarb, indoxacarb] are above 50 μg/insect, above 200 and 0.25 μg/insect.
As to `CCN1OCC(NC(=O)c2ccc(C3=NOC(c4cc(Cl)c(F)c(Cl)c4)(C(F)(F)F)C3)cc2C)C1=O` (stereo not shown) [Isocycloseram, isocycloseram], in experiment [1], the “LD50 Resistant” value worked out at 0.10 μg/insect; the Resistance ratio is 1.7; the “Control of harmful arthropods showing high resistance to permethrin, deltamethrin, fipronil, indoxacarb and fluxametamide” value is “can effectively control”. In experiment [2], the “LD50 Susceptible” value amounted to 0.059 μg/insect.
For the compound `CN(C(=O)c1cc(-c2cnn(-c3c(Cl)cc(C(F)(C(F)(F)F)C(F)(F)F)cc3Cl)c2)cnc1Cl)C1CC1` [Nicofluprole, nicofluprole], in experiment [1], the “LD50 Resistant” value was 0.0065 μg/insect; the Resistance ratio is given as 2.4; the “Control of harmful arthropods showing high resistance to permethrin, deltamethrin, fipronil, indoxacarb and fluxametamide” value is given as “can effectively control”. Further, in experiment [2], the “LD50 Susceptible” value worked out at 0.0027 μg/insect.
In the case of `CC1(C)C(C=C(Cl)Cl)C1C(=O)OCc1cccc(Oc2ccccc2)c1` (stereo not shown) [Permethrin, permethrin], in experiment [1], the “LD50 Resistant” value is above 50 μg/insect and the Resistance ratio was above 180. Moreover, the “LD50 Susceptible” value in experiment [2] was found to be 0.28 μg/insect.

The values are drawn from patent US20250064061A1, “METHOD FOR CONTROLLING NOXIOUS ARTHROPODS” (SUMITOMO CHEMICAL COMPANY, LIMITED, priority 2021, published 2025).
